In US20230382889A1 (Volastra Therapeutics, Inc., priority 2022, published 2023):

Molecular target: hKIF18A (1-374) (Homo sapiens (Human), UniProt Q8NI77)
Experiment: Inhibition of KIF18A microtubule-dependent ATPase activity (ADP-Glo)
Format: biochemical
Settings: 4 nM hKIF18A (1-374)
Protocol: Test compounds were plated in a 3× dilution scheme in a 384-well plate. Assay buffer: 80 mM PIPES (pH 6.9), 1 mM MgCl2, 75 mM KCl, 1 mM EGTA, 1 mM DTT, 0.01% BSA, 0.005% Tween-20, 1 μM Taxol in H2O. […] After incubation at room temperature for 30 min, 2.5 μL of microtubule mix was added [0.2 mg/mL pre-formed microtubules, 2.0 mM ATP in assay buffer], the plate was centrifuged for 30 s and then incubated at 28° C. for 60 min. 5 μL of Promega® ADP-Glo Max R1 was added, the plate was centrifuged for 30 s, and the mixture incubated for 4 h at room temperature. 10 μL of Promega® ADP-Glo Max R2 was added, the plate centrifuged for 30 s, and incubated for 60 min at room temperature. Luminescence was measured with an Envision plate reader, and % Inhibition was calculated for each well as: ([max−min]−[test−min])/[max−min]. IC50 values were calculated from concentration vs. % Inhibition data via a four-parameter variable slope model.

hKIF18A (1-374), sequence (Q8NI77 1-374): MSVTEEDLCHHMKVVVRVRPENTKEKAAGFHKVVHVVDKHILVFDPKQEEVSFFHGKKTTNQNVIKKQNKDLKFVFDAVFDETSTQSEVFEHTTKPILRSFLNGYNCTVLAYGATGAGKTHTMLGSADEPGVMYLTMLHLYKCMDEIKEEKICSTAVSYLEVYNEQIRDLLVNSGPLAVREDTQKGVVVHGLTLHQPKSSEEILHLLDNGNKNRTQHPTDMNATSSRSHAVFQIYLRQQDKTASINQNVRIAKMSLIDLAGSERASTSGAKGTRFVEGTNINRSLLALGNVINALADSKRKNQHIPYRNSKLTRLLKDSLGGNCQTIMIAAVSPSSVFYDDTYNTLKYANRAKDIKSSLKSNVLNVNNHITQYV

Row | IC50 [nM] | SMILES
1 | 22 | O=S(=O)(CCO)Nc1ccc(-c2cn(-c3ccc(F)c(N4CCCCC4)n3)nn2)c(N2CCC3(CC2)CC3)c1 [Compound 147, N-(4-(1-(5-fluoro-6-(piperidin-1-yl)pyridin-2-yl)-1H-1,2,3-triazol-4-yl)-3-(6-azaspiro[2.5]octan-6-yl)phenyl)-2-hydroxyethane-1-sulfonamide]
2 | 18 | O=S(=O)(CCO)Nc1ccc(-c2cn(-c3ccc(F)c(N4CCC(F)(F)CC4)n3)nn2)c(N2CCC3(CC2)CC3)c1 [Compound 140, N-(4-(1-(6-(4,4-difluoropiperidin-1-yl)-5-fluoropyridin-2-yl)-1H-1,2,3-triazol-4-yl)-3-(6-azaspiro[2.5]octan-6-yl)phenyl)-2-hydroxyethane-1-sulfonamide]
3 | 10 | O=S(=O)(CCO)Nc1ccc(-n2cc(-c3ccn(C4CCCC4)n3)nn2)c(N2CCC3(CC2)CC3)c1 [Compound 83, N-(4-(4-(1-cyclopentyl-1H-pyrazol-3-yl)-1H-1,2,3-triazol-1-yl)-3-(6-azaspiro[2.5]octan-6-yl)phenyl)-2-hydroxyethane-1-sulfonamide]
4 | 14 | O=S(=O)(CCO)Nc1ccc(-n2cc(-c3nc(C4=CCC(F)(F)CC4)ccc3F)nn2)c(N2CCC3(CC2)CC3)c1 [Compound 159, N-(4-(4-(6-(4,4-difluorocyclohex-1-en-1-yl)-3-fluoropyridin-2-yl)-1H-1,2,3-triazol-1-yl)-3-(6-azaspiro[2.5]octan-6-yl)phenyl)-2-hydroxyethane-1-sulfonamide]
5 | 140 | O=S(=O)(CCO)Nc1ccc(-n2cc(-c3csc(N4CCCC4)n3)nn2)c(N2CCC3(CC2)CC3)c1 [Compound 81, 2-hydroxy-N-(4-(4-(2-(pyrrolidin-1-yl)thiazol-4-yl)-1H-1,2,3-triazol-1-yl)-3-(6-azaspiro[2.5]octan-6-yl)phenyl)ethane-1-sulfonamide]
6 | 14 | CS(=O)(=O)Nc1ccc(-n2cc(-c3nccc(N4CCC(F)(F)CC4)n3)cn2)c(N2CCC3(CC2)CC3)c1 [Compound 66, N-(4-(4-(4-(4,4-difluoropiperidin-1-yl)pyrimidin-2-yl)-1H-pyrazol-1-yl)-3-(6-azaspiro[2.5]octan-6-yl)phenyl)methanesulfonamide]
7 | 1100 | CS(=O)(=O)Nc1ccc(-n2cc(-c3cccc(N4CCC(F)(F)CC4)n3)nn2)c(N2CCCC2)c1 [Compound 16, N-(4-(4-(6-(4,4-difluoropiperidin-1-yl)pyridin-2-yl)-1H-1,2,3-triazol-1-yl)-3-(pyrrolidin-1-yl)phenyl)methanesulfonamide]
8 | 4.4 | CCS(=O)(=O)Nc1ccc(-n2cc(-c3c[n+]([O-])cc(N4CCC(F)(F)CC4)n3)nn2)c(N2CCC3(CC2)CC3)c1 [Compound 146, 3-(4,4-difluoropiperidin-1-yl)-5-(1-(4-(ethylsulfonamido)-2-(6-azaspiro[2.5]octan-6-yl)phenyl)-1H-1,2,3-triazol-4-yl)pyrazine 1-oxide]
9 | 6.5 | O=S(=O)(CCO)Nc1ccc(-n2cc(-c3ccc(F)c(N4CCCCC4)n3)nn2)c(N2CCC3(CC2)CC3)c1 [Compound 136, N-(4-(4-(5-fluoro-6-(piperidin-1-yl)pyridin-2-yl)-1H-1,2,3-triazol-1-yl)-3-(6-azaspiro[2.5]octan-6-yl)phenyl)-2-hydroxyethane-1-sulfonamide]
10 | 29 | CCS(=O)(=O)Nc1ccc(-n2cc(-c3cc(CO)cc(N4CCC(F)(F)CC4)n3)nn2)c(N2CCC3(CC2)CC3)c1 [Compound 131, N-(4-(4-(6-(4,4-difluoropiperidin-1-yl)-4-(hydroxymethyl)pyridin-2-yl)-1H-1,2,3-triazol-1-yl)-3-(6-azaspiro[2.5]octan-6-yl)phenyl)ethanesulfonamide]
11 | 14 | CC(C)(C)NS(=O)(=O)c1cccc(-c2cn(-c3ccc(NS(=O)(=O)CCO)cc3N3CCC4(CC3)CC4)nn2)c1 [Compound 121, N-(tert-butyl)-3-(1-(4-((2-hydroxyethyl)sulfonamido)-2-(6-azaspiro[2.5]octan-6-yl)phenyl)-1H-1,2,3-triazol-4-yl)benzenesulfonamide]
12 | 15 | Cc1cc(-c2cn(-c3ccc(NS(=O)(=O)CCO)cc3N3CCC(C(F)F)CC3)nn2)nc(N2CCC(F)(F)CC2)c1 [Compound 104, N-(3-(4-(difluoromethyl)piperidin-1-yl)-4-(4-(6-(4,4-difluoropiperidin-1-yl)-4-methylpyridin-2-yl)-1H-1,2,3-triazol-1-yl)phenyl)-2-hydroxyethane-1-sulfonamide]
13 | 21 | CS(=O)(=O)Nc1ccc(-c2ncc(-c3cccc(N4CC5C(C4)C5(F)F)n3)[nH]2)c(N2CCC3(CC2)CC3)c1 (centres unmarked) [Compound 30, N-(4-(5-(6-(6,6-difluoro-3-azabicyclo[3.1.0]hexan-3-yl)pyridin-2-yl)-1H-imidazol-2-yl)-3-(6-azaspiro[2.5]octan-6-yl)phenyl)methanesulfonamide]
14 | 74 | CC(C)(C)NS(=O)(=O)c1cccc(-c2cnc(-c3ccc(NS(C)(=O)=O)cc3N3CCC4(CC3)CC4)[nH]2)c1 [Compound 34, N-(tert-butyl)-3-(2-(4-(methylsulfonamido)-2-(6-azaspiro[2.5]octan-6-yl)phenyl)-1H-imidazol-5-yl)benzenesulfonamide]
15 | 1.6 | CS(=O)(=O)Nc1cc(N2CCC3(CC2)CC3)c(-n2cc(-c3cccc(N4CCC(F)(F)CC4)n3)nn2)cn1 [Compound 59, N-(5-(4-(6-(4,4-difluoropiperidin-1-yl)pyridin-2-yl)-1H-1,2,3-triazol-1-yl)-4-(6-azaspiro[2.5]octan-6-yl)pyridin-2-yl)methanesulfonamide]
16 | 14 | CCS(=O)(=O)Nc1ccc(-n2cc(-c3ccc(F)c(C(O)C4CCCC4)n3)nn2)c(N2CCC3(CC2)CC3)c1 (centres unmarked) [Compound 134, N-(4-(4-(6-(cyclopentyl(hydroxy)methyl)-5-fluoropyridin-2-yl)-1H-1,2,3-triazol-1-yl)-3-(6-azaspiro[2.5]octan-6-yl)phenyl)ethanesulfonamide]
17 | 140 | CS(=O)(=O)Nc1ccc(-c2ncc(-c3cccc(NC4CC(F)(F)C4)n3)[nH]2)c(N2CCC3(CC2)CC3)c1 [Compound 32, N-(4-(5-(6-((3,3-difluorocyclobutyl)amino)pyridin-2-yl)-1H-imidazol-2-yl)-3-(6-azaspiro[2.5]octan-6-yl)phenyl)methanesulfonamide]
18 | 21 | O=S(=O)(Nc1ccc(-n2cc(-c3ccc(F)c(N4CCC(F)(F)CC4)n3)nn2)c(N2CCCCC2)c1)C1(CO)CC1 [Compound 157, N-(4-(4-(6-(4,4-difluoropiperidin-1-yl)-5-fluoropyridin-2-yl)-1H-1,2,3-triazol-1-yl)-3-(piperidin-1-yl)phenyl)-1-(hydroxymethyl)cyclopropane-1-sulfonamide]
19 | 9.1 | CS(=O)(=O)Nc1ccc(-n2cc(-c3cccc(N4CCC(F)(F)CC4)n3)nn2)c(N2CCC3(CC2)CC3)n1 [Compound 46, N-(5-(4-(6-(4,4-difluoropiperidin-1-yl)pyridin-2-yl)-1H-1,2,3-triazol-1-yl)-6-(6-azaspiro[2.5]octan-6-yl)pyridin-2-yl)methanesulfonamide]
20 | 60 | O=S(=O)(CCO)Nc1ccc(-n2cc(-c3ccn(C4CCC4)n3)nn2)c(N2CCC3(CC2)CC3)c1 [Compound 82, N-(4-(4-(1-cyclobutyl-1H-pyrazol-3-yl)-1H-1,2,3-triazol-1-yl)-3-(6-azaspiro[2.5]octan-6-yl)phenyl)-2-hydroxyethane-1-sulfonamide]
21 | > 30000 | CS(=O)(=O)Nc1ccc(-c2noc(-c3cccc(N4CCOCC4)n3)n2)c(N2CCC3(CC2)CC3)c1 [Compound 164, N-(4-(5-(6-morpholinopyridin-2-yl)-1,2,4-oxadiazol-3-yl)-3-(6-azaspiro[2.5]octan-6-yl)phenyl)methanesulfonamide]
22 | 75 | Cc1cc(N2CCC(F)(F)CC2)nc(-n2cc(-c3ccc(NS(=O)(=O)C4CC4)cc3N3CCC4(CC3)CC4)nn2)c1 [Compound 105, N-(4-(1-(6-(4,4-difluoropiperidin-1-yl)-4-methylpyridin-2-yl)-1H-1,2,3-triazol-4-yl)-3-(6-azaspiro[2.5]octan-6-yl)phenyl)cyclopropanesulfonamide]
23 | 68 | O=S(=O)(CCO)Nc1ccc(-c2cn(-c3ccc(F)c(S(=O)(=O)N4CC(F)(F)C4)c3)nn2)c(N2CCC3(CC2)CC3)n1 [Compound 111, N-(5-(1-(3-((3,3-difluoroazetidin-1-yl)sulfonyl)-4-fluorophenyl)-1H-1,2,3-triazol-4-yl)-6-(6-azaspiro[2.5]octan-6-yl)pyridin-2-yl)-2-hydroxyethane-1-sulfonamide]
24 | 7.1 | O=S(=O)(CCO)Nc1ccc(-n2cc(-c3ccc(F)c(N4CCCCO4)n3)nn2)c(N2CCC3(CC2)CC3)c1 [Compound 154, N-(4-(4-(5-fluoro-6-(1,2-oxazinan-2-yl)pyridin-2-yl)-1H-1,2,3-triazol-1-yl)-3-(6-azaspiro[2.5]octan-6-yl)phenyl)-2-hydroxyethane-1-sulfonamide]
25 | 17 | CCS(=O)(=O)Nc1ccc(-n2cc(-c3cnc(C)c(N4CCC(F)(F)CC4)n3)nn2)c(N2CCC3(CC2)CC3)c1 [Compound 145, N-(4-(4-(6-(4,4-difluoropiperidin-1-yl)-5-methylpyrazin-2-yl)-1H-1,2,3-triazol-1-yl)-3-(6-azaspiro[2.5]octan-6-yl)phenyl)ethanesulfonamide]

Row | SMILES | IC50 [nM]
26 | CS(=O)(=O)Nc1ccc(-n2cc(-c3cccc(N4CCC(F)(F)CC4)n3)nn2)c(N2CC3CC(C3)C2)c1 [Compound 53, N-(3-(3-azabicyclo[3.1.1]heptan-3-yl)-4-(4-(6-(4,4-difluoropiperidin-1-yl)pyridin-2-yl)-1H-1,2,3-triazol-1-yl)phenyl)methanesulfonamide] | 43
